Results reported in patent publication US20080286387A1, “Standardized method for recovering enriched Indian date extract (IDE), properties of IDE and applications thereof” (priority 2007, published 2008).

Test system: 5-alpha-reductases
Assay: 5-alpha-reductase inhibition
Format: biochemical
Details: at a workable concentration of 9 μg/ml; FIG. 4

inhibition of 5-alpha-reductase: ≤ 13%
SMILES: CC(C)(C)NC(=O)[C@H]1CC[C@H]2[C@@H]3CC[C@H]4NC(=O)C=C[C@]4(C)[C@H]3CC[C@]12C [Finasteride]
